Structures can show the parent of a compound that is named as a salt. Where two headings read alike, the source gives them in different places.
Legend:
plasma DPP IV [1] = molecular target: T1, plasma DPP IV (Rattus norvegicus, UniProt P14740); experiment: Inhibition of plasma DPP IV activity in vitro, rat plasma; type: biochemical
T1 construct: from tissue
Procedure: (§1) Studies were also conducted to assess the inhibitory effect of this compound on plasma DPP IV activity in several species.

plasma DPP IV [2] = molecular target: T2, plasma DPP IV (Homo sapiens, UniProt P27487); experiment: Inhibition of plasma DPP IV activity in vitro, human plasma; type: biochemical
T2 construct: from tissue; host or cells: human plasma
Procedure: as §1

amino-peptidase P = experiment: In vitro selectivity, human proteases: amino-peptidase P; type: biochemical; details: up to 100 μM
From the text: In order to determine the in vitro selectivity of 1-[(3-cyano-pyridin-2-yl)methyl]-3-methyl-7-(2-butyn-1-yl)-8-[3-(R)-amino-piperidin-1-yl]-xanthine, the ability of this compound to inhibit a number of human proteases was investigated as described in Thomas et al. (2008), J. Pharmacol. Exp. Ther., vol. 325, p. 175-182, chapter In vitro DPP-4 Inhibition Assay, p. 176.

DPP IV [3] = molecular target: T3, DPP IV (Felis catus, UniProt Q9N2I7); experiment: Exploratory single dose PK/PD (1.0/5.0/10.0 mg/kg) in cats: DPP IV activity; type: in vivo, cat; details: for response vs control in vivo at 1 mg/kg: 1 mg/kg single oral; for response vs control in vivo at 1 mg/kg / response vs control in vivo at 5 mg/kg / response vs control in vivo at 10 mg/kg: read-out: DPP IV activity in cat plasma; for response vs control in vivo at 5 mg/kg: 5 mg/kg single oral; for response vs control in vivo at 10 mg/kg: 10 mg/kg single oral
T3 construct: Blood samples for the determination of this compound and DPP IV activity were collected; from tissue; host or cells: plasma of domestic short hair / purpose-bred cats dosed orally
Procedure: The investigation of the PK/PD values was conducted in the same way as in Example 7, with the variations described below.
The aim of this study was to investigate the PK/PD behaviour of 1-[(3-cyano-pyridin-2-yl)methyl]-3-methyl-7-(2-butyn-1-yl)-8-[3-(R)-amino-piperidin-1-yl]-xanthine in the cat following a single oral administration of 0, 1, 5 and 10 mg/kg body weight (dosages were based on the free base: 1 mg 1-[(3-cyano-pyridin-2-yl)methyl]-3-methyl-7-(2-butyn-1-yl)-8-[3-(R)-amino-piperidin-1-yl]-xanthine monohydrochloride corresponds to 0.923 mg 1-[(3-cyano-pyridin-2-yl)methyl]-3-methyl-7-(2-butyn-1-yl)-8-[3-(R)-amino-piperidin-1-yl]-xanthine free base).
Twelve clinically healthy male adult domestic short hair cats with a body weight range of 3.5-4.7 kg were used in this study. All animals were treated orally once via a stomach tube. Blood samples for pharmacokinetic and pharmacodynamic (DPP IV activity) investigations were drawn at 0 h (i.e. prior to treatment), 30 min as well as 1, 2, 4, 8, 8.5, 9, 12, 24, 36, 48, 72, 84 and 96 h after treatment. Blood samples for pharmacodynamic (glucagon-like peptide 1 concentrations) investigations were drawn at −16 (i.e. prior to feeding), −15.5, −15 h as well as at 8 h (i.e. prior to feeding), 8.5 and 9 h after treatment.

DPP IV [4] = molecular target: T3, DPP IV; experiment: PK/PD studies in cats, summary; type: in vivo, cat
Procedure: PK/PD studies to measure the effect of different doses of 1-[(3-cyano-pyridin-2-yl)methyl]-3-methyl-7-(2-butyn-1-yl)-8-[3-(R)-amino-piperidin-1-yl]-xanthine CL on DPP IV activity, are presented in the experimental part of this application. […] Larger degrees of DPP IV inhibition, e.g. more than 80% in 24 h can be reached by increased doses. The duration of DPP IV inhibition can be prolonged with higher dosages.

DPP IV [5] = molecular target: T3, DPP IV; experiment: OGTT study in normal cats after 9 mg per cat: DPP IV activity; type: in vivo; details: 9 mg per cat oral
Procedure: An OGTT like in Example 11 was performed in […] beginning 1 h after oral administration of 9 mg 1-[(3-cyano-pyridin-2-yl)methyl]-3-methyl-7-(2-butyn-1-yl)-8-[3-(R)-amino-piperidin-1-yl]-xanthine monohydrochloride or placebo (2 groups with 6 animals each; 3 male and 3 females per group).

T3 sequence (Q9N2I7 38-765 limits assumed): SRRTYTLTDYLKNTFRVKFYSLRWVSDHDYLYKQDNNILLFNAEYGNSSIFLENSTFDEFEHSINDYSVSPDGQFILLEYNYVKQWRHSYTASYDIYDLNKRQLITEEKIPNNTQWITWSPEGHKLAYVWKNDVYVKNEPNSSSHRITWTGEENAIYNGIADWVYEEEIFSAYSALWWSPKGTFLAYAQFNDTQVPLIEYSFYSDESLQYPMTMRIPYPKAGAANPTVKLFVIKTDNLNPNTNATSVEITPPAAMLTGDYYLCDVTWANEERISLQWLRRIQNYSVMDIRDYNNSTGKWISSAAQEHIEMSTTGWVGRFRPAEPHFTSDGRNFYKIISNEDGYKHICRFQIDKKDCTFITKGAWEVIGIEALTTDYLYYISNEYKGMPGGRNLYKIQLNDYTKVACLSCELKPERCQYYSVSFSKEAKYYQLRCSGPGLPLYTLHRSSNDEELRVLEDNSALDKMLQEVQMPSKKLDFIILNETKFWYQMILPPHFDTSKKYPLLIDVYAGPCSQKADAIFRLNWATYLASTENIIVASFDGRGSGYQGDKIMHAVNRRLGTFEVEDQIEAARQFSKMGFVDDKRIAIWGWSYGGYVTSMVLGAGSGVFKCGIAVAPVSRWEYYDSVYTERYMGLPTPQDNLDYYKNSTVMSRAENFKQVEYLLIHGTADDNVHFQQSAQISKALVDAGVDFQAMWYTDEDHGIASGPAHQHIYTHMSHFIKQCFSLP
T1 sequence (P14740 37-767 limits assumed): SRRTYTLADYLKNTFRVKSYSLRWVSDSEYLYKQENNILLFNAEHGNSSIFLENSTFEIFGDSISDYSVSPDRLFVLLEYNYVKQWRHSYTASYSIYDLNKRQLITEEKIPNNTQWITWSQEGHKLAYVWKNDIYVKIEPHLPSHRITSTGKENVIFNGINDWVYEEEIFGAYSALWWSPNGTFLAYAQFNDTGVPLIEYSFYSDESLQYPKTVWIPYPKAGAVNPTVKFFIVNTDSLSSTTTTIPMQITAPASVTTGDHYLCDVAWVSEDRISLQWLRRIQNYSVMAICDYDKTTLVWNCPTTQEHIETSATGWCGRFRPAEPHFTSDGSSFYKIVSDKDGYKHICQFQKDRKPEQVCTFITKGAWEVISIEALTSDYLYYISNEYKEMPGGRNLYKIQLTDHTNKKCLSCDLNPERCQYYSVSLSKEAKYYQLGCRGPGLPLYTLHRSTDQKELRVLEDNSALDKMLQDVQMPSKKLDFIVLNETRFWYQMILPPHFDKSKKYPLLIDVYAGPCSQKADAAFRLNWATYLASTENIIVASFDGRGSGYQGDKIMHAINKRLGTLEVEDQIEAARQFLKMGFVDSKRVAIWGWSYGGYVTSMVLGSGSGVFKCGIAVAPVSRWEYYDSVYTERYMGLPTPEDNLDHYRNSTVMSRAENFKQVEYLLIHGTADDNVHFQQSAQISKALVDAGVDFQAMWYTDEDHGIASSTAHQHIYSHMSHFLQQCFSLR
T2 sequence (P27487 39-766 limits assumed): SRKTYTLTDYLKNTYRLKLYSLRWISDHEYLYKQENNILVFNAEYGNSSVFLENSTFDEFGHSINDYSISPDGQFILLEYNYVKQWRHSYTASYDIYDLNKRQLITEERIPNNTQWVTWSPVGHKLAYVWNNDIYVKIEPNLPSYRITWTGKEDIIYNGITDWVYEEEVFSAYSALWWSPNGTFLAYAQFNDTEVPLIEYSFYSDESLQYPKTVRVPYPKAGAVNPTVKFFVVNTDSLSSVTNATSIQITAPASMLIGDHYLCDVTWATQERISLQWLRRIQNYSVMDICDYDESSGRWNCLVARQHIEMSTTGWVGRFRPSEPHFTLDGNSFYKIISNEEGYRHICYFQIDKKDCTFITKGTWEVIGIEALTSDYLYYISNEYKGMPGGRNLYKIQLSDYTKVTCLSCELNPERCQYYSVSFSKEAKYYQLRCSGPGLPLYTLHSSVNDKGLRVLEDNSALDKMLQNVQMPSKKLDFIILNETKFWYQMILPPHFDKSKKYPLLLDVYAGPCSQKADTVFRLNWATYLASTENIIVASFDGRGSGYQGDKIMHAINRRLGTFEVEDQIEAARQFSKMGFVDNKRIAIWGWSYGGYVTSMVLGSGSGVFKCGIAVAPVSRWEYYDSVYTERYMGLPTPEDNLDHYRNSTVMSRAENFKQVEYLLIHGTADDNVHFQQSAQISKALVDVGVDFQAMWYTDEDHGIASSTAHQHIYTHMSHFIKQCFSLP

What does the source list for `CC#CCn1c(N2CCC[C@@H](N)C2)nc2c1c(=O)n(Cc1ncccc1C#N)c(=O)n2C` [1-[(3-cyano-pyridin-2-yl)methyl]-3-methyl-7-(2-butyn-1-yl)-8-[3-(R)-amino-piperidin-1-yl]-xanthine monohydrochloride]?
IC50 (plasma DPP IV [1]): ~0.8 nM; IC50 (plasma DPP IV [2]): ~0.6 nM; inhibitory effect on amino-peptidase P (amino-peptidase P): did not exert any inhibitory effect; time up to which DPP IV values remained ≦20% (DPP IV [3]; 1.0 mg/kg single oral): 12 h; response vs control in vivo at 1 mg/kg (DPP IV [3]; 0.5 h): 8%; response vs control in vivo at 1 mg/kg (DPP IV [3]; 1 h): 7%; response vs control in vivo at 1 mg/kg (DPP IV [3]; 2 h): 7%; response vs control in vivo at 1 mg/kg (DPP IV [3]; 4 h): 7.3%; response vs control in vivo at 1 mg/kg (DPP IV [3]; 8 h): 9.3%; response vs control in vivo at 1 mg/kg (DPP IV [3]; 8.5 h): 9.7%; response vs control in vivo at 1 mg/kg (DPP IV [3]; 9 h): 9.7%; response vs control in vivo at 1 mg/kg (DPP IV [3]; 12 h): 12.3%; response vs control in vivo at 1 mg/kg (DPP IV [3]; 24 h): 22.3%; response vs control in vivo at 1 mg/kg (DPP IV [3]; 36 h): 43%; response vs control in vivo at 1 mg/kg (DPP IV [3]; 48 h): 59%; response vs control in vivo at 1 mg/kg (DPP IV [3]; 72 h): 74.7%; response vs control in vivo at 1 mg/kg (DPP IV [3]; 84 h): 84.3%; response vs control in vivo at 1 mg/kg (DPP IV [3]; 96 h): 81.7%; time up to which DPP IV values remained ≦20% (DPP IV [3]; 5.0 mg/kg single oral): 24 h; response vs control in vivo at 5 mg/kg (DPP IV [3]; 0.5 h): 7.7%; response vs control in vivo at 5 mg/kg (DPP IV [3]; 1 h): 7%; response vs control in vivo at 5 mg/kg (DPP IV [3]; 2 h): 7%; response vs control in vivo at 5 mg/kg (DPP IV [3]; 4 h): 7.7%; response vs control in vivo at 5 mg/kg (DPP IV [3]; 8 h): 8.3%; response vs control in vivo at 5 mg/kg (DPP IV [3]; 8.5 h): 8.7%; response vs control in vivo at 5 mg/kg (DPP IV [3]; 9 h): 9%; response vs control in vivo at 5 mg/kg (DPP IV [3]; 12 h): 9.3%; response vs control in vivo at 5 mg/kg (DPP IV [3]; 24 h): 14.7%; response vs control in vivo at 5 mg/kg (DPP IV [3]; 36 h): 25.7%; response vs control in vivo at 5 mg/kg (DPP IV [3]; 48 h): 42.7%; response vs control in vivo at 5 mg/kg (DPP IV [3]; 72 h): 72.3%; response vs control in vivo at 5 mg/kg (DPP IV [3]; 84 h): 90%; response vs control in vivo at 5 mg/kg (DPP IV [3]; 96 h): 87.7%; time up to which DPP IV values remained ≦20% (DPP IV [3]; 10.0 mg/kg single oral): 48 h; response vs control in vivo at 10 mg/kg (DPP IV [3]; 0.5 h): 8%; response vs control in vivo at 10 mg/kg (DPP IV [3]; 1 h): 7.3%; response vs control in vivo at 10 mg/kg (DPP IV [3]; 2 h): 7.3%; response vs control in vivo at 10 mg/kg (DPP IV [3]; 4 h): 9%; response vs control in vivo at 10 mg/kg (DPP IV [3]; 8 h): 9%; response vs control in vivo at 10 mg/kg (DPP IV [3]; 8.5 h): 9.7%; response vs control in vivo at 10 mg/kg (DPP IV [3]; 9 h): 9.3%; response vs control in vivo at 10 mg/kg (DPP IV [3]; 12 h): 9.7%; response vs control in vivo at 10 mg/kg (DPP IV [3]; 24 h): 12.3%; response vs control in vivo at 10 mg/kg (DPP IV [3]; 36 h): 16.3%; response vs control in vivo at 10 mg/kg (DPP IV [3]; 48 h): 20%; response vs control in vivo at 10 mg/kg (DPP IV [3]; 72 h): 37%; response vs control in vivo at 10 mg/kg (DPP IV [3]; 84 h): 58.3%; response vs control in vivo at 10 mg/kg (DPP IV [3]; 96 h): 67.3%; minimum mean DPP IV values (DPP IV [3]; all three groups (1.0, 5.0, 10.0 mg/kg single oral)): 7%; plasma concentration at which maximum DPP-IV inhibition was reached (DPP IV [3]; cat, PK-PD correlation): 15 to 30 nmol/L; doses leading to a significant DPP IV inhibition (DPP IV [4]): more than 0.1 mg/kg; DPP IV inhibition in 24 h (DPP IV [4]; achieved with 1 to 3 mg/kg (˜3 to 9 mg per cat, or 4 to 30 nmol/l in cat plasma)): more than 70%; inhibition of DPP IV activity (DPP IV [5]): more than 80%

From patent publication US20140228287A1, “1-[(3-CYANO-PYRIDIN-2-YL)METHYL]-3-METHYL-7-(2-BUTYN-1-YL)-8-[3-(R)-AMINO-PIPERIDIN-1-YL]-AXANTHINE FOR THE TREATMENT OF A METABOLIC DISORDER OF A PREDOMINANTLY CARNIVOROUS NON-HUMAN ANIMAL” (BOEHRINGER INGELHEIM VETMEDICA GMBH, priority 2010, published 2014)
